Source: patent US8183248B2, “Substituted pyrrolo[2,3-d]pyrimidines and compositions as protein kinase inhibitors” (IRM LLC, priority 2005, dated 2012)

Experiments:
Assay in all cases: Upstate KinaseProfiler radio-enzymatic filter binding assay
Assay type in all cases: biochemical
JNK2α2(h) = molecular target: T1, JNK2α2(h) (Homo sapiens, UniProt P45984); settings: read-out: percentage inhibition JNK2α2(h)
T1 construct: purchased Upstate
Method: (§1) Compounds of the invention are assessed for their ability to inhibit individual members of the kinase panel. The compounds are tested in duplicates at a final concentration of 10 μM following this generic protocol. Note that the kinase buffer composition and the substrates vary for the different kinases included in the “Upstate KinaseProfiler™” panel. Kinase buffer (2.5 μL, 10×—containing MnCl2 when required), active kinase (0.001-0.01 Units; 2.5 μL), specific or Poly(Glu4-Tyr) peptide (5-500 μM or 0.01 mg/ml) in kinase buffer and kinase buffer (50 μM; 5 μL) are mixed in an eppendorf on ice. A Mg/ATP mix (10 μL; 67.5 (or 33.75) mM MgCl2, 450 (or 225) μM ATP and 1 μCi/μl [γ-^32P]-ATP (3000 Ci/mmol)) is added and the reaction is incubated at about 30° C. for about 10 minutes. The reaction mixture is spotted (20 μL) onto a 2 cm×2 cm P81 (phosphocellulose, for positively charged peptide substrates) or Whatman No. 1 (for Poly (Glu4-Tyr) peptide substrate) paper square. The assay squares are washed 4 times, for 5 minutes each, with 0.75% phosphoric acid and washed once with acetone for 5 minutes. The assay squares are transferred to a scintillation vial, 5 ml scintillation cocktail are added and ^32P incorporation (cpm) to the peptide substrate is quantified with a Beckman scintillation counter. Percentage inhibition is calculated for each reaction.

IKKβ(h) = molecular target: T2, IKKβ(h) (Homo sapiens, UniProt O14920); settings: read-out: percentage inhibition IKKβ(h)
T2 construct: purchased Upstate
Method: as §1

Abl(m) = molecular target: T3, Abl(m) (Mus musculus, UniProt P00520); settings: read-out: percentage inhibition Abl(m)
T3 construct: purchased Upstate
T3 sequence (P00520 27-1123 limits assumed): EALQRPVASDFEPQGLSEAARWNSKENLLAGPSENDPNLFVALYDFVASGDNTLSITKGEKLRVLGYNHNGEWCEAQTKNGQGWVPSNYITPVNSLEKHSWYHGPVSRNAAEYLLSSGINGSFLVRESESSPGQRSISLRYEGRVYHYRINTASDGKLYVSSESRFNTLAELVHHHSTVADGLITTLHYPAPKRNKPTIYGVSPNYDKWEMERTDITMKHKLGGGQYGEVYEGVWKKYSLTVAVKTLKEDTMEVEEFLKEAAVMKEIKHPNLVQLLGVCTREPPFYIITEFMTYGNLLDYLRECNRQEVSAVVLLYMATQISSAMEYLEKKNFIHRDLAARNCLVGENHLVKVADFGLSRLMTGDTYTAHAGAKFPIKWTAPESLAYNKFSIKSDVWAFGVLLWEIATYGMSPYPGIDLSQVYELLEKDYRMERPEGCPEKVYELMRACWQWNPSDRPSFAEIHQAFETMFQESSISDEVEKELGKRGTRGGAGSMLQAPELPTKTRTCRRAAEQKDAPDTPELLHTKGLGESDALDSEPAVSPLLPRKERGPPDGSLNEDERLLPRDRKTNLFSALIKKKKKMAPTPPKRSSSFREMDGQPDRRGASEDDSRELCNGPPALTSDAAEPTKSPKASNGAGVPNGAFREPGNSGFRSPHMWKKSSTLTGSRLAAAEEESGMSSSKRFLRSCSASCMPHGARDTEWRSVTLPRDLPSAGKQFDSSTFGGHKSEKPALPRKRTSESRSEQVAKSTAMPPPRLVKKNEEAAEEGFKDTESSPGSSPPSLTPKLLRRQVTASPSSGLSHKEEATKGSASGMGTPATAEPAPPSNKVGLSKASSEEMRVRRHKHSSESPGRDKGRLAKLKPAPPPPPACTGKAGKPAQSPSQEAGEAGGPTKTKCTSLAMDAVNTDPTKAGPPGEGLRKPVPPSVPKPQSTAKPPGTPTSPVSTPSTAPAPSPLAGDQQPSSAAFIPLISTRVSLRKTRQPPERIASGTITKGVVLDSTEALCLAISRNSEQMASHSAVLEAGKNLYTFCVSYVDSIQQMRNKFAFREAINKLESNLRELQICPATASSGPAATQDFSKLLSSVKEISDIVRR
Method: as §1

PKA(h) = molecular target: T4, PKA(h) (Homo sapiens, UniProt P17612); settings: read-out: percentage inhibition PKA(h)
T4 construct: purchased Upstate
Method: as §1

Syk(h) = molecular target: T5, Syk(h) (Homo sapiens, UniProt P43405); settings: read-out: percentage inhibition Syk(h)
T5 construct: purchased Upstate
Method: as §1

SGK(h) = molecular target: T6, SGK(h) (Homo sapiens, UniProt O00141); settings: read-out: percentage inhibition SGK(h)
T6 construct: purchased Upstate
Method: as §1

PDGFRα(h) = molecular target: T7, PDGFRα(h) (Homo sapiens, UniProt P16234); settings: read-out: percentage inhibition PDGFRα(h)
T7 construct: purchased Upstate
Method: as §1

MKK6(h) = molecular target: T8, MKK6(h) (Homo sapiens, UniProt P52564); settings: read-out: percentage inhibition MKK6(h)
T8 construct: purchased Upstate
Method: as §1

IKKα(h) = molecular target: T9, IKKα(h) (Homo sapiens, UniProt O15111); settings: read-out: percentage inhibition IKKα(h)
T9 construct: purchased Upstate
Method: as §1

Abl(T315L) = molecular target: T10, Abl(T315L) (Homo sapiens, UniProt P00519, T315I); settings: read-out: percentage inhibition Abl(T315L)
T10 construct: purchased Upstate
T10 sequence (P00519 27-1130 T315I limits assumed): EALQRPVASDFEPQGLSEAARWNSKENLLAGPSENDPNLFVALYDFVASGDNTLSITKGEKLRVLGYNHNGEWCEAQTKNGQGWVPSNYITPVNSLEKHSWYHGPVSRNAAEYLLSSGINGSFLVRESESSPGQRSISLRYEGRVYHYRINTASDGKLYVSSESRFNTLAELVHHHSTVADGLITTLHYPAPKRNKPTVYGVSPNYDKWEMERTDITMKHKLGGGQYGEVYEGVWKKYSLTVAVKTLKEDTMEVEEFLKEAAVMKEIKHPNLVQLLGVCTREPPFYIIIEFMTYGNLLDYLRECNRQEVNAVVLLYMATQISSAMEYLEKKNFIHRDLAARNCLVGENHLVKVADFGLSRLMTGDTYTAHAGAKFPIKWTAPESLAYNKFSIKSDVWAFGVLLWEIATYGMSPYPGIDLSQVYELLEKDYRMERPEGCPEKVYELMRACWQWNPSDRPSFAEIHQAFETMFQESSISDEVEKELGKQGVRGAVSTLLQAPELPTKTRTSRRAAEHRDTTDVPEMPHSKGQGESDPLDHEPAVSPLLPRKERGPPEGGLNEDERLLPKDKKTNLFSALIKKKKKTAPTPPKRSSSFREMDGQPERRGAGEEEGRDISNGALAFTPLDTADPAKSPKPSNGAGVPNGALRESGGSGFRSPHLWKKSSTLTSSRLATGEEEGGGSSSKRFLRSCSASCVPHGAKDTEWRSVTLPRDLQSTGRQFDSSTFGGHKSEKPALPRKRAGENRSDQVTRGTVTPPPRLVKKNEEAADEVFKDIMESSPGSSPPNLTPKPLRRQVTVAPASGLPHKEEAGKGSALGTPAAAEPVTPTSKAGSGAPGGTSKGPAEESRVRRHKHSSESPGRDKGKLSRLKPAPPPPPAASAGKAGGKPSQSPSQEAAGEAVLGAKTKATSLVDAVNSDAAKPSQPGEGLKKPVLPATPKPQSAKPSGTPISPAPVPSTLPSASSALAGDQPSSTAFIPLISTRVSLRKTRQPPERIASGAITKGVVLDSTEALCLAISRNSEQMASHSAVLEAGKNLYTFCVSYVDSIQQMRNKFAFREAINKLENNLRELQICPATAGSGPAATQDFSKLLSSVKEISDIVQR
Method: as §1

Met(h) = molecular target: T11, Met(h) (Homo sapiens, UniProt P08581); settings: read-out: percentage inhibition Met(h)
T11 construct: purchased Upstate
Method: as §1

Flt3(h) = molecular target: T12, Flt3(h) (Homo sapiens, UniProt P36888); settings: read-out: percentage inhibition Flt3(h)
T12 construct: purchased Upstate
Method: as §1

Tie2(h) = molecular target: T13, Tie2(h) (Homo sapiens, UniProt Q02763); settings: read-out: percentage inhibition Tie2(h)
T13 construct: purchased Upstate
Method: as §1

SAPK4(h) = molecular target: T14, SAPK4(h) (Homo sapiens, UniProt O15264); settings: read-out: percentage inhibition SAPK4(h)
T14 construct: purchased Upstate
Method: as §1

Ros(h) = molecular target: T15, Ros(h) (Homo sapiens, UniProt P08922); settings: read-out: percentage inhibition Ros(h)
T15 construct: purchased Upstate
Method: as §1

BTK(h) = molecular target: T16, BTK(h) (Homo sapiens, UniProt Q06187); settings: read-out: percentage inhibition BTK(h)
T16 construct: purchased Upstate
Method: as §1

p70S6K(h) = molecular target: T17, p70S6K(h) (Homo sapiens, UniProt P23443); settings: read-out: percentage inhibition p70S6K(h)
T17 construct: purchased Upstate
Method: as §1

PAK2(h) = molecular target: T18, PAK2(h) (Homo sapiens, UniProt Q13177); settings: read-out: percentage inhibition PAK2(h)
T18 construct: purchased Upstate
T18 sequence (Q13177 whole entry): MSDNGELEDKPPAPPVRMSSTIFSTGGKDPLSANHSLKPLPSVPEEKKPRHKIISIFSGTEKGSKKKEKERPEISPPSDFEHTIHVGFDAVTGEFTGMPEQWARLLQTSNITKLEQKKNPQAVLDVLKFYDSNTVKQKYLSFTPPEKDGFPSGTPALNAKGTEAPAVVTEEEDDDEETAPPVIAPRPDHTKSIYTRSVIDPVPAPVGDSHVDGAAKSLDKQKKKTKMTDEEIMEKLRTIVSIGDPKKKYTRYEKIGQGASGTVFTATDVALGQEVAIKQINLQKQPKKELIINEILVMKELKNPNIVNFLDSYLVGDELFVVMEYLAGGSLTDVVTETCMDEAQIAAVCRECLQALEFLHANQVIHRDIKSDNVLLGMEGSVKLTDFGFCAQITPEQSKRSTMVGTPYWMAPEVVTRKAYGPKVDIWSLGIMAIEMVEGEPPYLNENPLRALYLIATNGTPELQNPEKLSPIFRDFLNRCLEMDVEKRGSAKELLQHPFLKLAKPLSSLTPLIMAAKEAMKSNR
Method: as §1

Fes(h) = molecular target: T19, Fes(h) (Homo sapiens, UniProt P07332); settings: read-out: percentage inhibition Fes(h)
T19 construct: purchased Upstate
Method: as §1

JNK1α1(h) = molecular target: T20, JNK1α1(h) (Homo sapiens, UniProt P45983); settings: read-out: percentage inhibition JNK1α1(h)
T20 construct: purchased Upstate
T20 sequence (P45983 1-384 isoform P45983-2): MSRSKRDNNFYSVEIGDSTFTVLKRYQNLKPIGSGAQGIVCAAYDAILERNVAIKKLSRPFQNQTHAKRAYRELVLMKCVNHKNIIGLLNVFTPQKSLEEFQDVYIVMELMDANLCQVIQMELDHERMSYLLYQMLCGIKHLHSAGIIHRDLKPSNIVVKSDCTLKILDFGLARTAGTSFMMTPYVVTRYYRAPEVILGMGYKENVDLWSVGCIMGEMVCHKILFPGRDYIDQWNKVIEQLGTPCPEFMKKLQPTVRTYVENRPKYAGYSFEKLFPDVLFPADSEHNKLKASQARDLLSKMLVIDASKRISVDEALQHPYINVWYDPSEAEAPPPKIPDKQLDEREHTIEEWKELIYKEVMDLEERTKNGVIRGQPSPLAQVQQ
Method: as §1

CSK(h) = molecular target: T21, CSK(h) (Homo sapiens, UniProt P41240); settings: read-out: percentage inhibition CSK(h)
T21 construct: purchased Upstate
T21 sequence (P41240 whole entry): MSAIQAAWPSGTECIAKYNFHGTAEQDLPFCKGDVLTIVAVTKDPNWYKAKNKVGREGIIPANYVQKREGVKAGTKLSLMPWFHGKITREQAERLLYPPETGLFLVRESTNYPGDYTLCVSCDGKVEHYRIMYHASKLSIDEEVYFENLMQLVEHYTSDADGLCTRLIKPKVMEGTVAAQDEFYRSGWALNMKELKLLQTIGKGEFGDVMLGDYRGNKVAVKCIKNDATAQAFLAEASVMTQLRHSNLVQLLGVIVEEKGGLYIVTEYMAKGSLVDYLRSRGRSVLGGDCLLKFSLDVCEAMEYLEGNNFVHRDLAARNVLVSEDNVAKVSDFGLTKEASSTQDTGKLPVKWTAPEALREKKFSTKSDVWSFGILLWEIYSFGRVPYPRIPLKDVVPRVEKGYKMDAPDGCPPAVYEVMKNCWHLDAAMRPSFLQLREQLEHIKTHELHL
Method: as §1

Lck(h) = molecular target: T22, Lck(h) (Homo sapiens, UniProt P06239); settings: read-out: percentage inhibition Lck(h)
T22 construct: purchased Upstate
Method: as §1

SAPK2a(h) = molecular target: T23, SAPK2a(h) (Homo sapiens, UniProt Q16539); settings: read-out: percentage inhibition SAPK2a(h)
T23 construct: purchased Upstate
Method: as §1

PKD2(h) = molecular target: T24, PKD2(h) (Homo sapiens, UniProt Q9BZL6); settings: read-out: percentage inhibition PKD2(h)
T24 construct: purchased Upstate
T24 sequence (Q9BZL6 whole entry): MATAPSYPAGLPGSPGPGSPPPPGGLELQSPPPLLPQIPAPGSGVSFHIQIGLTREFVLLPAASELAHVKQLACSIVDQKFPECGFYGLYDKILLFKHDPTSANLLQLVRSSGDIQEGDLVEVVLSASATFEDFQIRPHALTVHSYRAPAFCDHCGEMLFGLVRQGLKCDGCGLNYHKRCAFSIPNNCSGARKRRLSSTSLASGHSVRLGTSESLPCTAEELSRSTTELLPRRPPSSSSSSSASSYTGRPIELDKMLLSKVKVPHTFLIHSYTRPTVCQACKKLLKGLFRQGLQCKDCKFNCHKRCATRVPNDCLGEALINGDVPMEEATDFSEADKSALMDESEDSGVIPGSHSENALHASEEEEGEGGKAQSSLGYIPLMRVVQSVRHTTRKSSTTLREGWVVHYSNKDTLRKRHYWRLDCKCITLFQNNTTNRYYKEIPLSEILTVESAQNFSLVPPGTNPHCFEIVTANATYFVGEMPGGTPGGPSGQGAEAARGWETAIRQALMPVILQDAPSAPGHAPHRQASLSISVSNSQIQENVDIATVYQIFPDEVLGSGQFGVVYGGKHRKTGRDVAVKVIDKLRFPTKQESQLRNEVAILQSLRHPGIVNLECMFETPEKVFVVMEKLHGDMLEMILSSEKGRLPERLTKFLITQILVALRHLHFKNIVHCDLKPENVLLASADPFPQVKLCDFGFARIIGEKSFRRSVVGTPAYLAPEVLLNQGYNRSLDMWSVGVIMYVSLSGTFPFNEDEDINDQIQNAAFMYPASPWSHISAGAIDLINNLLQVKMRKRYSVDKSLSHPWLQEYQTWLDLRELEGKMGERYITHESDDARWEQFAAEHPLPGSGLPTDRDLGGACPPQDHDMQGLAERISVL
Method: as §1

PKCα(h) = molecular target: T25, PKCα(h) (Homo sapiens, UniProt P17252); settings: read-out: percentage inhibition PKCα(h)
T25 construct: purchased Upstate
Method: as §1

SAPK2p(h) = molecular target: T26, SAPK2p(h) (Homo sapiens, UniProt Q15759); settings: read-out: percentage inhibition SAPK2p(h)
T26 construct: purchased Upstate
T26 sequence (Q15759 whole entry): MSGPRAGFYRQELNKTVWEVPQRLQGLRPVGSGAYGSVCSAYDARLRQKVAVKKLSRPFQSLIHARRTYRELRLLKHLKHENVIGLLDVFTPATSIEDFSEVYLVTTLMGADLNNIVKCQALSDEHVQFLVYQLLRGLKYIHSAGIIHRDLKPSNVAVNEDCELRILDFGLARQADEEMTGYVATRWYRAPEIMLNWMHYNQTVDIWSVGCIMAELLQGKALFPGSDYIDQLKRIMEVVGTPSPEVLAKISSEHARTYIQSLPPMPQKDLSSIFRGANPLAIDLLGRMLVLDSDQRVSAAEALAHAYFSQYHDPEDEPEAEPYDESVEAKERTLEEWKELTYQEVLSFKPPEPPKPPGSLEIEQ
Method: as §1

`CCN1CCN(Cc2ccc(NC(=O)c3ccc(C)c(NC(=O)N(C)c4ncnc5[nH]ccc45)c3)cc2C(F)(F)F)CC1` [Example 4, N-[4-(4-Ethyl-piperazin-1-ylmethyl)-3-trifluoromethyl-phenyl]-4-methyl-3-[3-methyl-3-(7H-pyrrolo[2,3-d]pyrimidin-4-yl)-ureido]-benzamide] gave an inhibition at 10 µM (JNK2α2(h)) of 99%, an inhibition at 10 µM (IKKβ(h)) of 96% and an inhibition at 10 µM (Abl(m)) of 98%. It also gave an inhibition at 10 µM (PKA(h)) of 92%, an inhibition at 10 µM (Syk(h)) of 63% and an inhibition at 10 µM (SGK(h)) of 81%. The inhibition at 10 µM (PDGFRα(h)) was 93%, the inhibition at 10 µM (MKK6(h)) was 98% and the inhibition at 10 µM (IKKα(h)) was 98%. It also gave an inhibition at 10 µM (Abl(T315L)) of 98%, an inhibition at 10 µM (Met(h)) of 70% and an inhibition at 10 µM (Flt3(h)) of 96%. The inhibition at 10 µM (Tie2(h)) was 98%, the inhibition at 10 µM (SAPK4(h)) was 82% and the inhibition at 10 µM (Ros(h)) was 62%. It also gave an inhibition at 10 µM (BTK(h)) of 99%, an inhibition at 10 µM (p70S6K(h)) of 94% and an inhibition at 10 µM (PAK2(h)) of 62%. The inhibition at 10 µM (Fes(h)) was 97%, the inhibition at 10 µM (JNK1α1(h)) was 81% and the inhibition at 10 µM (CSK(h)) was 100%. It also gave an inhibition at 10 µM (Lck(h)) of 100%, an inhibition at 10 µM (SAPK2a(h)) of 92% and an inhibition at 10 µM (PKD2(h)) of 94%. For the same compound, the inhibition at 10 µM (PKCα(h)) was 61% and the inhibition at 10 µM (SAPK2p(h)) was 85%.
